From paper PMC8876135, “The Catestatin-Derived Peptides Are New Actors to Fight the Development of Oral Candidosis” (International Journal of Molecular Sciences, 2022)
Values after ≈ are worked out from the molar mass of the structure shown. Like-named read-outs stand apart in the source and are kept apart here. Non-standard residues stand in square brackets, D forms with d. Residues, ends and D or L forms follow the SMILES beside them.

Legend:
“R” C. albicans = experiment: Transmission electron microscopy of treated cells; assay type: cell-based, Candida albicans; conditions: 1 × MIC and 10 × MIC, 1 h at 37 °C
Method: (§1) Precultures of sensitive and resistant Candida albicans strains were incubated for 2 h at 37 °C without shaking on glass bottom 24-well microplates previously treated with poly-L-lysine. The L-bCtl or D-bCtl peptides at concentrations of 1X MIC and 10X MIC were then added to the culture and incubated for 1 h at 37 °C with minimal shaking. The control samples correspond to the incubation of the different Candida albicans strains without any prior treatment. After 1 h incubation with or without each peptide of interest and a brief rinsing in 0.125 M cacodylate buffer, cells were fixed for 2 h 30 min in a 4% (v/v) glutaraldehyde buffered in 0.1 M sodium phosphate at pH 7.2. This step was followed with three 10 min washes in 0.1 M phosphate buffer at pH 7.2. Then the samples were post-fixed in a freshly prepared 2% (v/v) aqueous solution of potassium permanganate for 45 min at room temperature. The samples were washed three more times and dehydrated in graded series of ethanol of 7 min each. […]
(§2) Ultrathin sections were performed using a Reichert Jung Ultra-cut E ultra-microtome (Leica Microsystems, Nanterre, France) equipped with a diamond knife. […] Images were recorded on Kodak SO163 film (Sigma Aldrich, Saint-Quentin Fallavier, France). […]

“S” C. albicans = experiment: Transmission electron microscopy of treated cells; assay type: cell-based, Candida albicans; conditions: 1 × MIC and 10 × MIC, 1 h at 37 °C
Method: as §1, §2

Candida tropicalis “S” = assay type: cell-based; conditions: 24 h, pH 5.6
Method: (§3) Strains of Candida albicans, Candida tropicalis and Candida glabrata, frequently found in cases of oral candidosis, were tested for L-bCtl and D-bCtl antimicrobial activity. The sensitive strain of C. albicans (ATCC 10231^TM) was provided by ATCC (Manassas, VA, USA). The resistant strain of C. albicans, the sensitive and resistant strains of C. tropicalis as well as the sensitive and resistant strains of C. glabrata were kindly provided by Dr Valérie Letscher-Bru (Laboratory of Parasitolology and Medical Mycology, Strasbourg, France).
(§4) Each Candida strain was first plated on agar plates and cultured for 24 h at 37 °C. After incubation, one colony per isolate was transferred into 5 mL of Sabouraud medium pH 5.6 (Sigma-Aldrich, Le Pont-de-Claix, France) supplemented with tetracycline (10 μg/mL) and cefotaxime (10 μg/mL) and incubated aerobically under agitation at 37 °C for 24 h. The resulting cultures were resuspended at an absorbance of 0.001 (OD600nm = 0.001) in Sabouraud medium. The OD600nm was evaluated with a spectrophotometer (BIO-RAD Smatspec^TM plus, Schiltigheim, France). In preliminary experiments, we tested RPMI-1640 culture and Sabouraud media. Similar data were obtained but the experiments were more reproducible with Sabouraud than with RPMI1640. Therefore, Sabouraud medium was used in the present study.
(§5) The yeasts (OD600nm = 0.001) were then plated on 96-well microplates and treated with different concentrations of the peptides of interest. After 24 h incubation at 37 °C under agitation, yeast growth was assessed by optical density (OD600nm) using a microplate spectrophotometer (Multiscan EX, Thermo Fisher Scientific, Waltham, MA, USA). All tests were performed in triplicate. The MIC (minimal inhibitory concentration), defined as the lowest concentration of drug able to inhibit 100% of the growth of a pathogen, was determined for the different peptides against all previously described Candida strains, using a modified Gompertz model.

Candida albicans “R” = assay type: cell-based; conditions: 24 h, pH 5.6
Method: as §3, §4, §5

Candida tropicalis “R” = assay type: cell-based; conditions: 24 h, pH 5.6
Method: as §3, §4, §5

Candida glabrata “R” = assay type: cell-based; conditions: 24 h, pH 5.6
Method: as §3, §4, §5

Candida glabrata “S” = assay type: cell-based; conditions: 24 h, pH 5.6
Method: as §3, §4, §5

[1] = tested on: Candida albicans “S” (ATCC 10231); design: method as in Dartevelle et al. [28]; conditions: ref Dartevelle et al. [28], cited from earlier work; for MIC C. albicans “S”: values marked *, MIC = 100% growth inhibition
[2] = tested on: Candida albicans “S” (ATCC 10231); assay type: cell-based; conditions: ATCC 10231, 24 h, pH 5.6
Method: as §3, §4, §5

C. albicans = conditions: 24 h, 4 µM
Method: as §4, with “Similar data were obtained but the experiments were more reproducible with Sabouraud than with RPMI1640.” left out
The yeasts (OD600nm = 0.001) were then plated on 96-well microplates and treated with different concentrations of the peptides of interest. After 24 h incubation at 37 °C under agitation, yeast growth was assessed by optical density (OD600nm) using a microplate spectrophotometer (Multiscan EX, Thermo Fisher Scientific, Waltham, MA, USA). All tests were performed in triplicate.
The same method was used to evaluate the MICs of peptide/bovine serum albumin combinations (BSA).

[3] = cited from earlier work
From the text: Host-defense peptides (HDPs) have emerged as new attractive candidates in the development of new antimicrobial agents. In addition, HDPs have been proven to be potent immune effectors via the orchestration of immune responses.

CSCC[C@@H](NC(=O)[C@@H](CO)NC(=O)[C@H](N)CCCNC(=N)N)C(=O)N[C@H](CCCNC(=N)N)C(=O)N[C@H](CC(C)C)C(=O)N[C@H](CO)C(=O)N[C@H](Cc1ccccc1)C(=O)N[C@H](CCCNC(=N)N)C(=O)N[C@H](C)C(=O)N[C@H](CCCNC(=N)N)C(=O)NCC(=O)N[C@H](Cc1ccc(O)cc1)C(=O)NCC(=O)N[C@H](Cc1ccccc1)C(=O)N[C@H](CCCNC(=N)N)C(=O)O [Peptide P1] (H-[dR][dS][dM][dR][dL][dS][dF][dR][dA][dR]G[dY]G[dF][dR]-OH; N-terminus and C-terminus assumed)
TEM observation (“R” C. albicans): fungal membrane lysis | TEM observation (“S” C. albicans): fungal membrane lysis | MIC Candida tropicalis “S” (Candida tropicalis “S”): 8.1 µg/mL (≈ 4.35 µM) | MIC C. albicans “R” (Candida albicans “R”): 9.6 µg/mL (≈ 5.16 µM) | MIC Candida tropicalis “R” (Candida tropicalis “R”): 2.0 µg/mL (≈ 1.08 µM) | MIC Candida glabrata “R” (Candida glabrata “R”): 15.0 µg/mL (≈ 8.06 µM) | MIC Candida glabrata “S” (Candida glabrata “S”): 13.4 µg/mL (≈ 7.2 µM) | MIC C. albicans “S” (as stated in discussion) ([1]; peptide alone, same figures as the * values of Tables 2 and 3): 5.5 µM (≈ 10.2 µg/mL) | MIC C. albicans “S” [1]: 5.5 * µg/mL | MIC C. albicans “S” ([1]; listed as D-form of bCtl): 5.5 µg/mL (≈ 2.96 µM)

CSCC[C@H](NC(=O)[C@H](CO)NC(=O)[C@@H](N)CCCNC(=N)N)C(=O)N[C@@H](CCCNC(=N)N)C(=O)N[C@@H](CC(C)C)C(=O)N[C@@H](CO)C(=O)N[C@@H](Cc1ccccc1)C(=O)N[C@@H](CCCNC(=N)N)C(=O)N[C@@H](C)C(=O)N[C@@H](CCCNC(=N)N)C(=O)NCC(=O)N[C@@H](Cc1ccc(O)cc1)C(=O)NCC(=O)N[C@@H](Cc1ccccc1)C(=O)N[C@@H](CCCNC(=N)N)C(=O)NCC(=O)N1CCC[C@H]1C(=O)NCC(=O)N[C@@H](CC(C)C)C(=O)N[C@@H](CCC(N)=O)C(=O)N[C@@H](CC(C)C)C(=O)O [bCts] (H-RSMRLSFRARGYGFRGPGLQL-OH)
MIC Candida tropicalis “S” (Candida tropicalis “S”): 50 µg/mL (≈ 20.6 µM) | MIC C. albicans “R” (Candida albicans “R”): 50 µg/mL (≈ 20.6 µM) | MIC Candida tropicalis “R” (Candida tropicalis “R”): 20 µg/mL (≈ 8.24 µM) | MIC C. albicans “S” [2]: 30 µg/mL (≈ 12.4 µM) | MIC Candida glabrata “R” (Candida glabrata “R”): >100 µg/mL | MIC Candida glabrata “S” (Candida glabrata “S”): >100 µg/mL | inhibition (C. albicans): more than 90%

CSCC[C@H](NC(=O)[C@H](CO)NC(=O)[C@@H](N)CO)C(=O)N[C@@H](CCCCN)C(=O)N[C@@H](CC(C)C)C(=O)N[C@@H](CO)C(=O)N[C@@H](Cc1ccccc1)C(=O)N[C@@H](CCCNC(=N)N)C(=O)N[C@@H](C)C(=O)N[C@@H](CCCNC(=N)N)C(=O)N[C@@H](C)C(=O)N[C@@H](Cc1ccc(O)cc1)C(=O)NCC(=O)N[C@@H](Cc1ccccc1)C(=O)N[C@@H](CCCNC(=N)N)C(=O)NCC(=O)N1CCC[C@H]1C(=O)NCC(=O)N1CCC[C@H]1C(=O)N[C@@H](CCC(N)=O)C(=O)N[C@@H](CC(C)C)C(=O)O [hCts] (H-SSMKLSFRARAYGFRGPGPQL-OH)
MIC Candida tropicalis “S” (Candida tropicalis “S”): >240 µg/mL | MIC C. albicans “R” (Candida albicans “R”): >240 µg/mL | MIC Candida tropicalis “R” (Candida tropicalis “R”): >240 µg/mL | MIC C. albicans “S” [2]: >240 µg/mL | MIC Candida glabrata “R” (Candida glabrata “R”): >240 µg/mL | MIC Candida glabrata “S” (Candida glabrata “S”): >240 µg/mL

CSCC[C@H](NC(=O)[C@H](CO)NC(=O)[C@@H](N)CCCNC(=N)N)C(=O)N[C@@H](CCCNC(=N)N)C(=O)N[C@@H](CC(C)C)C(=O)N[C@@H](CO)C(=O)N[C@@H](Cc1ccccc1)C(=O)N[C@@H](CCCNC(=N)N)C(=O)N[C@@H](C)C(=O)N[C@@H](CCCNC(=N)N)C(=O)NCC(=O)N[C@@H](Cc1ccc(O)cc1)C(=O)NCC(=O)N[C@@H](Cc1ccccc1)C(=O)N[C@@H](CCCNC(=N)N)C(=O)O [bCtl] (H-RSMRLSFRARGYGFR-OH)
stability to bacterial degradation [3]: resists bacterial degradation | MIC Candida tropicalis “S” (Candida tropicalis “S”): 9.8 µg/mL (≈ 5.27 µM) | MIC C. albicans “R” (Candida albicans “R”): 9.6 µg/mL (≈ 5.16 µM) | MIC Candida tropicalis “R” (Candida tropicalis “R”): 2.0 µg/mL (≈ 1.08 µM) | MIC Candida glabrata “R” (Candida glabrata “R”): 61.4 µg/mL (≈ 33 µM) | MIC Candida glabrata “S” (Candida glabrata “S”): 38.2 µg/mL (≈ 20.5 µM)
